Measured values published in US20130109636A1, “TRI-AMINO RELEASING FULVATE” (priority 2011, published 2013).

Assays:
Format in all cases: in vivo
pain relief = details: wounds such as burns and skin lesions
anti-inflammatory = details: in all forms
prostate = details: swollen prostate
hypertension = details: encapsulated
[1] = vasodilatation / acceleration of microcirculation
Source text: (§1) This acceleration of microcirculation has many positive benefits.

wound healing = test: wound healing
Source text: as §1

Q: For “lithio-arginino-glycino-parabenzene-fulvate [Li-TAFA]”, which pain relief (pain relief) is on record?
A: Its pain relief is “demonstrated substantial pain relief, without diminishing topical sensation”.

Q: What about the “reduction of inflammation and of resulting discomfort” value (anti-inflammatory) of the same substance?
A: Its value is “shown the ability to reduce inflammation and control the discomfort resulting from inflammation”.

Q: And the prostate size (prostate)?
A: Its prostate size is “demonstrated the ability to shrink a swollen prostate to normal size”.

Q: And the reduction of hypertension (hypertension)?
A: Its reduction of hypertension is “demonstrated the ability to reduce hypertension”.

Q: And the toxic side effects (hypertension)?
A: The toxic side effects was “without toxic side effects”.

Q: And the “vasodilatation qualities / acceleration of microcirculation” value ([1]; used topically or internally)?
A: The value was “exhibited vasodilatation qualities”.

Q: What about the toxic side effects ([1]; used topically or internally to accelerate microcirculation) of the same substance?
A: The toxic side effects was “without toxic side effects”.

Q: And the “healing of wounds, burns and chronic lesions” value (wound healing; lesions healed: 3rd degree radiation burns, squamous and basal cell carcinoma, psoriasis, venous stasis ulcers, decubitus ulcers, deep surgical wounding, herpes)?
A: The value was “exhibited the ability to aid and accelerate the healing of wounds, burns (of all degrees) and several types of chronic lesions”.

Q: And the scar formation (wound healing; radiation burns of the 3rd degree)?
A: Its scar formation is “complete suppression of scar formation”.
